According to patent US8883849B2, “Treatment of sleep disturbances” (Wyeth LLC, priority 2001, dated 2014):
“Also recorded” adds a separate entry of the source. Where two headings read alike, the source gives them in different places. Marks after values point to notes of the source that are not given here.

What was measured:
[1] = tested on: patients evaluated for sleep disturbances after oral surgery; test: Study A: single dose after oral surgery, ibuprofen, diphenhydramine and combination vs placebo; type: in vivo, human; conditions: diphenhydramine HCl 50 mg; for Duration of Sleep: 6-point categorical scale 0 (≦5 hours) to 5 (≧9 hours); for Global Evaluation: global evaluation of sleep, 5-point categorical scale; for Cumulative % Asleep at 60 minutes: nurse graded; for Sleep Latency (median): nurse observed, single dose ibuprofen 400 mg; for Time to Rescue (median): nurse recorded; for SPRID3: time-weighted sum of pain relief and pain intensity differences over 0-3 hours
Excerpt: A single center, inpatient, single dose, randomized (stratified by gender and baseline pain severity), double blind, double dummy, parallel group placebo controlled study was used.
In a double dummy scenario, patients are given multiple dosage forms, one study medication for the group in which they are assigned, and placebos resembling the dosage forms for the other study groups. […] The combination was in a soft gelatin capsule formulation.
The art recognizes that patient-assessed duration of sleep is a very good indicator of the amount of sleep received by the patient. If patients requested rescue medication within an hour of receiving treatment, they were considered protocol violators and removed from the study.
The SPRID3 calculation was as follows. AT 90 minutes, 2 hours, and 3 hours, the patients were woken and asked two questions: how much relief of pain have you had? (no relief=0, a little=1, some=2, a lot=3, complete=4) and what is the severity of your pain? (none=0, mild=1, moderate=2, severe=3). Pain intensity difference (PID) was determined by subtracting the severity of pain score at the time in question to the baseline score measured before treatment. The pain relief rating (PPR) was then added to the PID for a PRID score. The PRID scores were plotted on a graph over time for each patient, and the SPRID3 score was read as the area under the curve for each patient's PRID plot. SPRID3 is a combination measurement of pain relief and pain severity.
In this model, only one hour of phase shifting sleeplessness was induced, compared to three hours in subsequent studies. In other words, patients were required to go to sleep one hour earlier than their bedtime.

[2] = Interaction and stability testing of ibuprofen and diphenhydramine in one composition; type: physicochemical; conditions: dissolution, appearance, potency
Excerpt: An ion pair or salt could, thus, be formed. Such an interaction creates a more nonpolar composition, which may have different dissolution characteristics and absorption profile in the body. Such changes in a pharmaceutical composition may be highly undesirable, due to unpredictability of effect.

[3] = tested on: normal sleep patterns in humans; conditions: cited from earlier work
[4] = tested on: patients with pain following oral surgery, bedtime 3 hours early; test: Study B (AE-98-01): ibuprofen/diphenhydramine combination vs ibuprofen alone and placebo after oral surgery; type: in vivo, human
Procedure: This study was conducted in a similar manner to Example 1.
The placebo group also received soft gelatin capsules.
The trial was conducted as a randomized, stratified (by baseline pain and gender), inpatient, placebo controlled, partial factorial, single dose, double blind, parallel group, single center trial. Following oral surgery, patients were kept at the clinic site overnight. Study medications were dispenses when patients experienced pain at a moderate level or greater, and when it was between about 6:30 and 8:00 p.m. (3 hours prior to the patient's usual bedtime). Patients were required to go to sleep after receiving study medication.
The same sleep parameters were used as in Example 1. Additionally, global assessment as a pain reliever was determined. This parameter was a patient-assessed parameter made at the time of rescue medication, if needed, or in the morning, if no rescue medication. Pain relief was assessed on a five-point scale (0=poor, 1=fair, 2=good, 3=very good, 4=excellent). Sleep was monitored by an observer at regular intervals over 3 hours post-dosing. Patients provided pain assessments at 90 and 120 minutes post-dosing. Patients also provided subjective assessments of sleep efficacy, global assessments of sleep and pain the next morning or at the time rescue medication was used.
The following statistical methods were used. All analyses were done using SAS® Version 6.12. Subjective sleep and pain assessments were analyzed by analysis of variance (ANOVA), incorporating effects for treatment, baseline pain severity rating (PSR), and gender in the model. In addition, the interactions of treatment-by-baseline PSR and treatment-by-gender were assessed (at the 0.15 level) in separate models, by adding interaction terms, one at a time, to the initial ANOVA model. The distributions of sleep latency and time to rescue medication were assessed using the Kaplan-Meier estimates, and the variables were analyzed using the Cox proportional hazards regression model with treatment, baseline PSR and gender effects. In addition, the interactions of treatment-by-baseline PSR and treatment-by-gender were assessed (at the 0.15 level) in separate models by adding each interaction term, one at a time, to the initial model.
If each interaction was generally significant (p≦0.15), it was retained in the final model. In the assessment of treatment effects in the presence of interactions, each level of the stratifying variable were to be weighted equally (consistent with the ANOVA models). Ninety-five percent confidence intervals for the median time to sleep and median time to rescue medication were derived. In addition, the actual and cumulative proportion of subjects asleep at each observation time point and the cumulative proportion of subjects who took rescue medication by each observation time point were analyzed by the Cochran-Mantel-Haenszel test controlling for baseline PSR and gender.
In order to protect the Type I error at the 0.05 level, comparisons were tested in sequential order. Each step had to be significant for the subsequent steps to be eligible for significance.
The secondary end points were assessed at the 0.05 level of significance, in the same sequential order.
The primary analysis of efficacy was conducted on the intent-to-treat population, which included all randomized subjects who took the study medication and had at least one post-baseline (sleep and pain) efficacy assessment.

[5] = tested on: subjects of the partial factorial studies (pain after oral surgery); test: Pooled data of studies AE-98-01/02; type: in vivo, human; conditions: for % who required remed.: Pooled Studies AE-98-01/02
Excerpt: Data from two of the studies were pooled together. Some of the most significant study data are presented in Table 7, with graphical representations of the data in FIGS. 28-29.

[6] = tested on: subjects with pain following oral surgery, bedtime at least 3 hours early; test: Study C (AE-98-02): ibuprofen/diphenhydramine combination vs ibuprofen alone after oral surgery; type: in vivo, human
Procedure: This was a randomized stratified (by baseline pain and gender), inpatient, placebo-controlled, partial-factorial, single-dose, double-blind, parallel group, single-center trial. Following oral surgery, subjects were housed and observed at a clinic site overnight. When subjects experienced at least moderate pain and it was between approximately 6:30 PM and 8:00 PM (at least 3 hours earlier than their usual bedtime), they received study medication and were required to go to bed for the evening. Sleep was evaluated by an observer at regular intervals over 3 hours post-dosing. […] Subjects also provided subjective assessments of sleep efficacy as well as global assessments of the study medication as a sleep-aid and as an analgesic the next morning (or at the time rescue medication was used).
The patients were assessed for duration of sleep, cumulative percent of subjects asleep at 60 minutes post-dosing (based on observed sleep latency assessments). they were also assessed for pain using SPRID2 (time-weighted sum of pain relief and pain intensity differences from baseline over 0-2 hours). Sleep latency (observer based), ease of falling asleep, and global evaluation of sleep were also used.
Cumulative percent of subjects asleep by 60 minutes was analyzed by the Cochran-Mantel-Haenszel test controlling for baseline PSR and gender. Subjective sleep and pain assessments were analyzed by analysis of variance (ANOVA), incorporating effects for treatment, baseline pain severity rating (PSR), and gender in the model. The distributions of sleep latency and time to rescue medication were assessed using the Kaplan-Meier estimates, and the variables were analyzed using the Cox proportional hazards (PH) regression model with treatment, baseline PSR, and gender effects. For both ANOVA and PH models, the interactions of treatment-by-baseline PSR and treatment-by-gender were assessed (at the 0.15 level) in separate models by adding each interaction term, one at a time, to the initial model. If each interaction was generally significant (p≦0.15), it was retained in the final model. In the assessment of treatment effects in the presence of interactions, each level of the stratifying variable was to be weighted equally.
In order to protect the Type I error at the 0.05 level, comparisons were tested in sequential order for the primary as well as the secondary efficacy endpoints. Each step had to be significant for the subsequent steps to be eligible for significance. […] The secondary end points were assessed, at the 0.05 level of significance, in a similar sequential order. The primary analysis of efficacy was based on the intent-to-treat (ITT) population, which included all randomized subjects who took study medication and had at least one post-baseline (sleep and pain) efficacy assessment.

[7] = oral administration, cited from earlier work
[8] = Study B, 5-point scale 0=poor to 4=excellent, IBU 400 mg, DPH 50 mg
[9] = Study C, 5-point scale 0=poor to 4=excellent, IBU 400 mg, DPH 50 mg

## CN(C)CCOC(c1ccccc1)c1ccccc1 [DPH, 2-(diphenylmethoxy)-N,N-dimethylethylamine]
[1]; ibuprofen 400 mg
  Duration of Sleep: 0.23 A
  Global Evaluation: 0.77 A
  % Requiring Rescue: 97% B
  Cumulative % Asleep at 60 minutes: 61.3 A %
  Time to Rescue (median): 2.04 A hours
  SPRID3: 1.8 A
[1]
  Sleep Latency (median): 51.3 A
[2]
  interaction between ibuprofen and diphenhydramine in the composition: much more prone to interaction than the citrate form

## CC(C)Cc1ccc(C(C)C(=O)O)cc1 (centres unmarked) [IBU, Ibuprofen]
[1]; 5-point scale 0=did not fall asleep to 4=very easy, ibuprofen 400 mg
  Ease of Falling Asleep: 2.10 B
[1]; ibuprofen 400 mg
  Duration of Sleep: 2.68 B
  Global Evaluation: 1.84 B
  % Requiring Rescue: 45% B
  Cumulative % Asleep at 60 minutes: 77.4 AB %
  Time to Rescue (median): >10 B hours
  SPRID3: 13.7 B
[1]
  Sleep Latency (median): 25 min
[1]; listed as ibuprofen
  Sleep Latency (median): significantly better than the diphenhydramine and placebo groups
[3]; healthy adults
  effect on sleep (Gengo 1996): no impact on sleep
[3]; patients not suffering from pain
  effect on sleep (Murphy et al. 1994): increase the number of awakenings and percentage of time spent in stage wake, and decrease sleep efficiency; also recorded: delay the onset of deeper stages of sleep
[4]; Study B, 5-point scale 0-4, IBU 400 mg, DPH 50 mg
  Ease of Falling Asleep - mean: 1.81*
[4]; [8]
  Global Assessment as a Pain Reliever: 2.30*
  Global Assessment as a Sleep-Aid: 1.63*
[4]; Study B, 6-point categorical scale, IBU 400 mg, DPH 50 mg
  Duration of Sleep - mean: 2.26*
[4]; Study B, 90 minutes post-dosing, IBU 400 mg, DPH 50 mg
  PRID 90 minutes: 3.72*
[4]; Study B, 120 minutes post-dosing, IBU 400 mg, DPH 50 mg
  PRID 120 minutes: 4.09*
[4]; Study B, IBU 400 mg, DPH 50 mg
  % Requiring Rescue Medication for Any Reason: 48.3* %
  SPRID2: 7.63*
  Sleep Latency (Observed) - median: 44.0* minutes
  Time to Rescue Medication for Any Reason: >12* hours
[4]; Study B, IBU 400 mg, DPH 50 mg, soft gelatin capsules
  Cumulative % Asleep at 60 minutes: 64.4^† %
[4]; Table 7, Study AE-98-01
  % who required remed.: (48%)
  Time to Remed.: >12.0 B hrs.
[4]; Table 7, Study AE-98-01, 5-point scale 0-Poor to 4 = Excellent
  Global Eval - Sleep-Aid: 1.63 B
[4]; Table 7, Study AE-98-01, 6-point scale 0 = <5 hrs to 5 = >9 hrs
  Duration of Sleep: 2.26 B
[5]
  % who required remed.: (45%)
[5]; listed as ibuprofen
  % who required remed.: 45%
[5]; Table 7, Pooled Studies AE-98-01/02
  Time to Remed.: >12.0 B hrs.
[5]; Table 7, Pooled Studies AE-98-01/02, 6-point scale
  Duration of Sleep: 2.12 B
[5]; Table 7, pooled studies, 5-point scale 0-Poor to 4 = Excellent
  Global Eval - Sleep-Aid: 1.60 B
[5]; pooled data
  subjects who slept for less than 5 hours: 32%
[6]; Study C, 5-point scale 0-4, IBU 400 mg, DPH 50 mg
  Ease of Falling Asleep: 1.89^†
[6]; [9]
  Global Assessment as a Pain Reliever: 2.51^†
  Global Assessment as a Sleep-Aid: 1.57^†
[6]; Study C, 6-point categorical scale, IBU 400 mg, DPH 50 mg, soft gelatin capsules
  Duration of Sleep: 1.98^†
[6]; Study C, 90 minutes post-dosing, IBU 400 mg, DPH 50 mg
  PRID 90 minutes: 3.83^†,§
[6]; Study C, 120 minutes post-dosing, IBU 400 mg, DPH 50 mg
  PRID 120 minutes: 4.13^†
[6]; Study C, IBU 400 mg, DPH 50 mg
  % Requiring Rescue Medication for Any Reason: 42.3^† %
  Cumulative % Asleep at 60 minutes: 75.6^† %
  Time to Rescue Medication for Any Reason: >12^† hours
[6]; Study C, over 0-2 hours, IBU 400 mg, DPH 50 mg
  SPRID2: 7.81^†,§
[6]; Table 7, Study AE-98-02
  % who required remed.: (42%)
  Time to Remed.: >12.0 B hrs.
[6]; Table 7, Study AE-98-02, 5-point scale 0-Poor to 4 = Excellent
  Global Eval - Sleep-Aid: 1.57 B
[6]; Table 7, Study AE-98-02, 6-point scale 0 = <5 hrs to 5 = >9 hrs
  Duration of Sleep: 1.98 B
[7]; suspensions
  time to peak serum concentrations: ≤ 1 h
[7]; tablets
  time to peak serum concentrations: ≤ 2 h
